Test results: patent publication US10004701B2, “Methods and compositions for treating infection” (UNIVERSITY OF ROCHESTER, priority 2012, dated 2018)
Structures can show the parent of a compound that is named as a salt. Where two headings read alike, the source gives them in different places.

Tests used:
Assay in all cases: AK assay 384-well format, Prestwick library screening
E. faecium = assay type: cell-based, Enterococcus faecium; details: 50 μM final drug concentration; for fold induction at 50 µM: Enterococcus faecium, 3 h
[1] = test system: A. baumannii strain 98-37-09; assay type: cell-based, Acinetobacter baumannii; details: 50 μM final drug concentration; for fold induction at 50 µM: Acinetobacter baumannii, 983709, 3 h
P. aeruginosa = assay type: cell-based, Pseudomonas aeruginosa; details: 50 μM final drug concentration; for fold induction at 50 µM: Pseudomonas aeruginosa, 3 h
E. coli = assay type: cell-based, Escherichia coli; details: 50 μM final drug concentration; for fold induction at 50 µM: Escherichia coli, 3 h
[2] = test system: S. aureus strain USA300-0114; assay type: cell-based, Staphylococcus aureus; details: 50 μM final drug concentration; for fold induction at 50 µM: Staphylococcus aureus, USA300, 3 h
E. cloacae = assay type: cell-based, Enterobacter cloacae; details: 50 μM final drug concentration; for fold induction at 50 µM: Enterobacter cloacae, 3 h
K. pneumoniae = assay type: cell-based, Klebsiella pneumoniae; details: 50 μM final drug concentration; for fold induction at 50 µM: Klebsiella pneumoniae, 3 h
[3] = planktonic, cutoff for positive-scoring molecules 3-fold increase, read-out: AK-based Prestwick Library Screening Results, E. faecium (fold increase in extracellular AK activity)
[4] = planktonic, cutoff for positive-scoring molecules 3-fold increase, read-out: AK-based Prestwick Library Screening Results, A. baumannii (fold increase in extracellular AK activity)
[5] = planktonic, cutoff for positive-scoring molecules 3-fold increase, read-out: AK-based Prestwick Library Screening Results, P. aeruginosa (fold increase in extracellular AK activity)
[6] = planktonic, cutoff for positive-scoring molecules 3-fold increase, read-out: AK-based Prestwick Library Screening Results, E. coli (fold increase in extracellular AK activity)
[7] = planktonic, cutoff for positive-scoring molecules 3-fold increase, read-out: AK-based Prestwick Library Screening Results, S. aureus (fold increase in extracellular AK activity)
[8] = planktonic, cutoff for positive-scoring molecules 3-fold increase, read-out: AK-based Prestwick Library Screening Results, E. cloacae (fold increase in extracellular AK activity)
[9] = planktonic, cutoff for positive-scoring molecules 3-fold increase, read-out: AK-based Prestwick Library Screening Results, K. pneumoniae (fold increase in extracellular AK activity)
[10] = planktonic, cutoff for positive 3-fold increase
[11] = planktonic, cutoff for positive-scoring molecules 3-fold increase

## NC12CC3CC(CC(C3)C1)C2.NC12CC3CC(CC(C3)C1)C2.O=C(O)/C=C/C(=O)O [Adamantamine fumarate]
E. faecium; planktonic E. faecium, 384-well, cutoff for positive-scoring molecules 3-fold increase
  AK-based Prestwick Library Screening Results: E. faecium (increase in extracellular AK activity): 0.9
[1]; planktonic A. baumannii, 384-well, cutoff for positive-scoring molecules 3-fold increase
  AK-based Prestwick Library Screening Results: A. baumannii (increase in extracellular AK activity): 0.5
P. aeruginosa; planktonic P. aeruginosa, 384-well, cutoff for positive-scoring molecules 3-fold increase
  AK-based Prestwick Library Screening Results: P. aeruginosa (increase in extracellular AK activity): 0.4
E. coli; planktonic E. coli, 384-well, cutoff for positive-scoring molecules 3-fold increase
  AK-based Prestwick Library Screening Results: E. coli (increase in extracellular AK activity): 0.5
[2]; planktonic S. aureus, 384-well, cutoff for positive-scoring molecules 3-fold increase
  AK-based Prestwick Library Screening Results: S. aureus (increase in extracellular AK activity): 0.4
E. cloacae; planktonic E. cloacae, 384-well, cutoff for positive-scoring molecules 3-fold increase
  AK-based Prestwick Library Screening Results: E. cloacae (increase in extracellular AK activity): 0.4
K. pneumoniae; planktonic K. pneumoniae, 384-well, cutoff for positive-scoring molecules 3-fold increase
  AK-based Prestwick Library Screening Results: K. pneumoniae (increase in extracellular AK activity): 0.5

## O=C1CN(/N=C/c2ccc(-c3ccc([N+](=O)[O-])cc3)o2)C(O)=N1 [Dantrolene sodium salt]
E. faecium; planktonic E. faecium, 384-well, cutoff for positive-scoring molecules 3-fold increase, read-out: AK-based Prestwick Library Screening Results: E. faecium (increase in extracellular AK activity)
  fold induction at 50 µM: 1
[1]; planktonic A. baumannii, 384-well, cutoff for positive-scoring molecules 3-fold increase, read-out: AK-based Prestwick Library Screening Results: A. baumannii (increase in extracellular AK activity)
  fold induction at 50 µM: 1.1
P. aeruginosa; planktonic P. aeruginosa, 384-well, cutoff for positive-scoring molecules 3-fold increase, read-out: AK-based Prestwick Library Screening Results: P. aeruginosa (increase in extracellular AK activity)
  fold induction at 50 µM: 1.2
E. coli; planktonic E. coli, 384-well, cutoff for positive-scoring molecules 3-fold increase, read-out: AK-based Prestwick Library Screening Results: E. coli (increase in extracellular AK activity)
  fold induction at 50 µM: 1
[2]; planktonic S. aureus, 384-well, cutoff for positive-scoring molecules 3-fold increase, read-out: AK-based Prestwick Library Screening Results: S. aureus (increase in extracellular AK activity)
  fold induction at 50 µM: 1.1
E. cloacae; planktonic E. cloacae, 384-well, cutoff for positive-scoring molecules 3-fold increase, read-out: AK-based Prestwick Library Screening Results: E. cloacae (increase in extracellular AK activity)
  fold induction at 50 µM: 1.5
K. pneumoniae; planktonic K. pneumoniae, 384-well, cutoff for positive-scoring molecules 3-fold increase, read-out: AK-based Prestwick Library Screening Results: K. pneumoniae (increase in extracellular AK activity)
  fold induction at 50 µM: 0.9

## COC(=O)[C@@H]1[C@H]2C[C@H]3c4[nH]c5ccccc5c4CCN3C[C@@H]2CC[C@@H]1O [Yohimbine hydrochloride]
E. faecium; planktonic E. faecium, cutoff for positive-scoring molecules 3-fold increase, read-out: AK-based Prestwick Library Screening Results, E. faecium (increase in extracellular AK activity)
  fold induction at 50 µM: 0.9
[1]; planktonic A. baumannii, cutoff for positive-scoring molecules 3-fold increase, read-out: AK-based Prestwick Library Screening Results, A. baumannii (increase in extracellular AK activity)
  fold induction at 50 µM: 0.8
P. aeruginosa; planktonic P. aeruginosa, cutoff for positive-scoring molecules 3-fold increase, read-out: AK-based Prestwick Library Screening Results, P. aeruginosa (increase in extracellular AK activity)
  fold induction at 50 µM: 0.9
E. coli; planktonic E. coli, cutoff for positive-scoring molecules 3-fold increase, read-out: AK-based Prestwick Library Screening Results, E. coli (increase in extracellular AK activity)
  fold induction at 50 µM: 0.8
[2]; planktonic S. aureus, cutoff for positive-scoring molecules 3-fold increase, read-out: AK-based Prestwick Library Screening Results, S. aureus (increase in extracellular AK activity)
  fold induction at 50 µM: 0.6
E. cloacae; planktonic E. cloacae, cutoff for positive-scoring molecules 3-fold increase, read-out: AK-based Prestwick Library Screening Results, E. cloacae (increase in extracellular AK activity)
  fold induction at 50 µM: 1
K. pneumoniae; planktonic K. pneumoniae, cutoff for positive-scoring molecules 3-fold increase, read-out: AK-based Prestwick Library Screening Results, K. pneumoniae (increase in extracellular AK activity)
  fold induction at 50 µM: 0.8

## CC(C)C[C@H]1C(=O)N2CCC[C@H]2[C@]2(O)O[C@](NC(=O)[C@@H]3C=C4c5cccc6[nH]cc(c56)C[C@H]4N(C)C3)(C(C)C)C(=O)N12 [Ergocryptine-alpha]
E. faecium; planktonic, […]
  AK-based Prestwick Library Screening Results, E. faecium (fold increase in extracellular AK activity): 0.7
[1]; planktonic, […]
  AK-based Prestwick Library Screening Results, A. baumannii (fold increase in extracellular AK activity): 0.5
P. aeruginosa; planktonic, […]
  AK-based Prestwick Library Screening Results, P. aeruginosa (fold increase in extracellular AK activity): 0.4
E. coli; planktonic, […]
  AK-based Prestwick Library Screening Results, E. coli (fold increase in extracellular AK activity): 0.4
[2]; planktonic, […]
  AK-based Prestwick Library Screening Results, S. aureus (fold increase in extracellular AK activity): 0.2
E. cloacae; planktonic, […]
  AK-based Prestwick Library Screening Results, E. cloacae (fold increase in extracellular AK activity): 0.4
K. pneumoniae; planktonic, […]
  AK-based Prestwick Library Screening Results, K. pneumoniae (fold increase in extracellular AK activity): 0.5

## CC(=O)[C@H]1CC[C@H]2[C@@H]3C[C@H](C)C4=CC(=O)CC[C@]4(C)[C@H]3[C@@H](O)C[C@]12C [Medrysone]
E. faecium; [3]
  fold induction at 50 µM: 1
[1]; [4]
  fold induction at 50 µM: 0.7
P. aeruginosa; [5]
  fold induction at 50 µM: 0.8
E. coli; [6]
  fold induction at 50 µM: 0.7
[2]; [7]
  fold induction at 50 µM: 0.6
E. cloacae; [8]
  fold induction at 50 µM: 1
K. pneumoniae; [9]
  fold induction at 50 µM: 0.7

## C[N+]1(C)CCC[C@H]1C(=O)[O-].Cl [Stachydrine hydrochloride]
E. faecium; [10]
  AK-based Prestwick Library Screening Results, E. faecium (fold increase in extracellular AK activity): 1.0
[1]; [10]
  AK-based Prestwick Library Screening Results, A. baumannii (fold increase in extracellular AK activity): 1.4
P. aeruginosa; [10]
  AK-based Prestwick Library Screening Results, P. aeruginosa (fold increase in extracellular AK activity): 1.2
E. coli; [10]
  AK-based Prestwick Library Screening Results, E. coli (fold increase in extracellular AK activity): 1.4
[2]; [10]
  AK-based Prestwick Library Screening Results, S. aureus (fold increase in extracellular AK activity): 1.0
E. cloacae; [10]
  AK-based Prestwick Library Screening Results, E. cloacae (fold increase in extracellular AK activity): 1.5
K. pneumoniae; [10]
  AK-based Prestwick Library Screening Results, K. pneumoniae (fold increase in extracellular AK activity): 1.1

## Nc1ccc(C(=O)NCC(=O)O)cc1 [Aminohippuric acid]
E. faecium; [3]
  fold induction at 50 µM: 0.9
[1]; [4]
  fold induction at 50 µM: 0.7
P. aeruginosa; [5]
  fold induction at 50 µM: 0.7
E. coli; [6]
  fold induction at 50 µM: 0.7
[2]; [7]
  fold induction at 50 µM: 0.6
E. cloacae; [8]
  fold induction at 50 µM: 0.8
K. pneumoniae; [9]
  fold induction at 50 µM: 0.6

## CCC(C)(CN(C)C)OC(=O)c1ccccc1.Cl (stereo not shown) [Amyleine hydrochloride]
E. faecium; 384-well format, […]
  AK-based Prestwick Library Screening Results, E. faecium (increase in extracellular AK activity): 1.1
[1]; 384-well format, […]
  AK-based Prestwick Library Screening Results, A. baumannii (increase in extracellular AK activity): 1.1
P. aeruginosa; 384-well format, […]
  AK-based Prestwick Library Screening Results, P. aeruginosa (increase in extracellular AK activity): 0.9
E. coli; 384-well format, […]
  AK-based Prestwick Library Screening Results, E. coli (increase in extracellular AK activity): 1.4
[2]; 384-well format, […]
  AK-based Prestwick Library Screening Results, S. aureus (increase in extracellular AK activity): 1.1
E. cloacae; 384-well format, […]
  AK-based Prestwick Library Screening Results, E. cloacae (increase in extracellular AK activity): 1.2
K. pneumoniae; 384-well format, […]
  AK-based Prestwick Library Screening Results, K. pneumoniae (increase in extracellular AK activity): 0.8

## Spiramycin
E. faecium; [11]
  AK-based Prestwick Library Screening Results, E. faecium (fold increase in extracellular AK activity): 1.0
[1]; [11]
  AK-based Prestwick Library Screening Results, A. baumannii (fold increase in extracellular AK activity): 0.9
P. aeruginosa; [11]
  AK-based Prestwick Library Screening Results, P. aeruginosa (fold increase in extracellular AK activity): 0.7
E. coli; [11]
  AK-based Prestwick Library Screening Results, E. coli (fold increase in extracellular AK activity): 0.9
[2]; [11]
  AK-based Prestwick Library Screening Results, S. aureus (fold increase in extracellular AK activity): 6.6
E. cloacae; [11]
  AK-based Prestwick Library Screening Results, E. cloacae (fold increase in extracellular AK activity): 1.2
K. pneumoniae; [11]
  AK-based Prestwick Library Screening Results, K. pneumoniae (fold increase in extracellular AK activity): 0.8

## Viomycin sulfate
E. faecium; planktonic E. faecium, […]
  AK-based Prestwick library screening result, E. faecium (fold increase in extracellular AK activity): 1.0
[1]; planktonic A. baumannii, […]
  AK-based Prestwick library screening result, A. baumannii (fold increase in extracellular AK activity): 1.1
P. aeruginosa; planktonic P. aeruginosa, […]
  AK-based Prestwick library screening result, P. aeruginosa (fold increase in extracellular AK activity): 0.9
E. coli; planktonic E. coli, […]
  AK-based Prestwick library screening result, E. coli (fold increase in extracellular AK activity): 1.0
[2]; planktonic S. aureus, […]
  AK-based Prestwick library screening result, S. aureus (fold increase in extracellular AK activity): 1.3
E. cloacae; planktonic E. cloacae, […]
  AK-based Prestwick library screening result, E. cloacae (fold increase in extracellular AK activity): 1.6
K. pneumoniae; planktonic K. pneumoniae, […]
  AK-based Prestwick library screening result, K. pneumoniae (fold increase in extracellular AK activity): 0.9
